This assay deals with T1, NPY Y2 receptor (Homo sapiens, UniProt P49146).
T1 sequence (P49146 1-381): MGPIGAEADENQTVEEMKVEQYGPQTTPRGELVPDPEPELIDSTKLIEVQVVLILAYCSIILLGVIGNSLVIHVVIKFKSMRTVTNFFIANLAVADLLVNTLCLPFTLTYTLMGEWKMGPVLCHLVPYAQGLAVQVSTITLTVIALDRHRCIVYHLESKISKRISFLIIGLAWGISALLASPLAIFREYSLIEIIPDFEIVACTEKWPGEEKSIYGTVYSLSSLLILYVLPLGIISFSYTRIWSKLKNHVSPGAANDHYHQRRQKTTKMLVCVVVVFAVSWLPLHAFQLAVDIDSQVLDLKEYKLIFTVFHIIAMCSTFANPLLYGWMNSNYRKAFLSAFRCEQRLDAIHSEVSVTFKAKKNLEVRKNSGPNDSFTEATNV
As to the kind of experiment: Neuropeptide Y2 radioligand binding assay ([125I]PYY, KAN-Ts membranes). Further details: endogenous in cells; host or cells: KAN-Ts cells (membrane preparation). The conditions noted are these: KAN-Ts membranes endogenously expressing Y2, [125I]PYY (80 pM), 1 h at rt. On the procedure:
KAN-Ts endogenously expressing Y2 receptors were used for the radioligand binding assay. Cells were grown to confluence on 150 cm^2 tissue culture plates, washed with phosphate-buffered saline (PBS), and scraped into 50 mL tubes. After centrifugation, the supernatant was aspirated, and the pellets frozen and stored at −80° C. Thawed pellets were homogenized with a polytron tissue grinder for 15 sec in 20 mM Tris-HCl, 5 mM EDTA. The homogenate was centrifuged at 800×g for 5 min and the collected supernatant was recentrifuged at 25000×g for 25 min. The resulting pellet was resuspended in binding buffer (20 mM HEPES, 120 mM NaCl, 0.22 mM KH2PO4, 1.3 mM CaCl2, 0.8 mM MgSO4). Membranes were incubated with [^125I]PYY (80 pM) in the presence or absence of test compound for 1 h at rt. The reaction was stopped by filtration through GF/C filter plates pre-soaked in 0.3% polyethylenimine and subsequently washed with Tris 50 mM, 5 mM EDTA buffer. Plates were dried for 1 h in a 55° C. oven, scintillation fluid was added and the radioactivity was counted in a Packard TopCount. Specific binding to the NPY receptor subtypes was determined by radioactivity that was bound in the presence of […]. Each binding experiment was repeated three to eight times, each in duplicate. IC50 values (i.e. concentration of unlabelled peptide or antagonist required to compete for 50% of specific binding to the radioligand) were calculated using the GraphPad Prism software (GraphPad Software Inc., San Diego Calif.) with a fit to a sigmoidal dose response curve. Apparent K, values were calculated as Ki=IC50/(1+C/KD), where C is concentration of the radioligand.

The structures appear in SMILES notation. Some results are limits rather than exact numbers.

`O=C(Nc1ccc(N2CCN(C(c3ccccc3)c3ncco3)CC2)c(F)c1)C1CCCC1` (single isomer, unassigned) [Compound 126, Cyclopentanecarboxylic acid {3-fluoro-4-[4-(oxazol-2-yl-phenyl-methyl)-piperazin-1-yl]-phenyl}-amide] came in with a half-maximal inhibitory concentration (IC50) of 340 nM. To `O=C(Nc1ccc(N2CCN(C(c3ccccc3)c3ccccc3)CC2)c(F)c1)[C@H]1CCOC1` (stereo in doubt) [Compound 14, Tetrahydro-furan-3-carboxylic acid [4-(4-benzhydryl-piperazin-1-yl)-3-fluoro-phenyl]-amide] belongs 80 nM. For `O=C(Nc1ccc(N2CCN(C(c3ccccc3)c3ncco3)CC2)c(F)c1)[C@@H]1CCOC1` (stereo in doubt) [Compound 92, Tetrahydro-furan-3-carboxylic acid {3-fluoro-4-[4-(oxazol-2-yl-phenyl-methyl)-piperazin-1-yl]-phenyl}-amide], the IC50 is 270 nM. Next, `CC[C@@H](C)C(=O)Nc1ccc(N2CCN(C(c3ccccc3)c3ncco3)CC2)c(C#N)c1` (stereo in doubt) [Compound 93, N-{3-Cyano-4-[4-(oxazol-2-yl-phenyl-methyl)-piperazin-1-yl]-phenyl}-2-methyl-butyramide]: 32 nM; `O=C(Nc1ccc(N2CCN(C(c3ccc(F)cc3)c3ncco3)CC2)c(F)c1)[C@@H]1CCOC1` (stereo in doubt) [Compound 127, Tetrahydro-furan-3-carboxylic acid (3-fluoro-4-{4-[(4-fluoro-phenyl)-oxazol-2-yl-methyl]-piperazin-1-yl}-phenyl)-amide]: > 5000 nM; `CCC(CC)C(=O)Nc1ccc(N2CCN(C(c3ccc(F)cc3)c3ccc(F)cc3)CC2)c(F)c1` [Compound 12, N-(4-{4-[Bis-(4-fluoro-phenyl)-methyl]-piperazin-1-yl}-3-fluoro-phenyl)-2-ethyl-butyramide]: 330 nM. Next, `CCC(CC)C(=O)Nc1ccc(N2CCN(C(c3ccccc3)c3ccc(Cl)cc3)CC2)c(F)c1` (stereo not shown) [Compound 13, N-(4-{4-[(4-Chloro-phenyl)-phenyl-methyl]-piperazin-1-yl}-3-fluoro-phenyl)-2-ethyl-butyramide]: 450 nM; `CCC(CC)NC(=O)c1ccc(N2CCN(C(c3ccccc3)c3ncco3)CC2)c(F)c1` (stereo not shown) [Compound 46, N-(1-Ethyl-propyl)-3-fluoro-4-[4-(oxazol-2-yl-phenyl-methyl)-piperazin-1-yl]-benzamide]: 1200 nM; `O=C(NC1CCCC1)c1ccc(N2CCN(C(c3ccccc3)c3ncco3)CC2)c(F)c1` (stereo not shown) [Compound 49, N-Cyclopentyl-3-fluoro-4-[4-(oxazol-2-yl-phenyl-methyl)-piperazin-1-yl]-benzamide]: > 10000 nM. To `CCN(CC)C(=O)Cc1ccc(N2CCN(C(c3ccccc3)c3ccccc3)CC2)c(F)c1` [Compound 51, 2-[4-(4-Benzhydryl-piperazin-1-yl)-3-fluoro-phenyl]-N,N-diethyl-acetamide] belongs 1550 nM; to `CCC(CC)C(=O)Nc1ccc(N2CCN(C(c3ccccc3)C3CC3)CC2)c(F)c1` (stereo not shown) [Compound 53, N-{4-[4-(Cyclopropyl-phenyl-methyl)-piperazin-1-yl]-3-fluoro-phenyl}-2-ethyl-butyramide], 78 nM; to `CCC(CC)C(=O)Nc1ccc(N2CCN(C(c3ccccn3)c3ccccn3)CC2)c(F)c1` [Compound 55, N-{4-[4-(Di-pyridin-2-yl-methyl)-piperazin-1-yl]-3-fluoro-phenyl}-2-ethyl-butyramide], 54 nM. `Cc1cccnc1Nc1ccc(N2CCN(C(c3ccccc3)c3ncco3)CC2)c(F)c1` (stereo not shown) [Compound 57, {3-Fluoro-4-[4-(oxazol-2-yl-phenyl-methyl)-piperazin-1-yl]-phenyl}-(3-methyl-pyridin-2-yl)-amine]: the 50% inhibitory concentration (IC50) was > 10000 nM.
